Measured values reported in US6737383B1, “Herbicidal oxadiazolidines” (priority 1999, dated 2004).

Legend:
morningglory = experiment: Test B pre/postemergence morningglory; format: in vivo, Ipomoea hederacea
Summary of the method: (§1)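 Response is a visual 0-to-10 score relative to untreated plants, where 0 means no effect and 10 means complete control, taken twelve to sixteen days after application. Treatments went onto soil at planting and onto foliage of 1- to 4-leaf plants, using a surfactant-containing non-phytotoxic solvent.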

giant foxtail = experiment: Test B pre/postemergence giant foxtail; format: in vivo, Setaria faberii
Summary of the method: as §1

corn = experiment: Test B pre/postemergence corn; format: in vivo, Zea mays
Summary of the method: as §1

pigweed = experiment: Test B pre/postemergence pigweed; format: in vivo, Amaranthus retroflexus
Summary of the method: as §1

blackgrass = experiment: Test B pre/postemergence blackgrass; format: in vivo, Alopecurus myosuroides
Summary of the method: as §1

velvetleaf = experiment: Test B pre/postemergence velvetleaf; format: in vivo, Abutilon theophrasti; conditions: for Plant response rating, Velvetleaf: Rate 250 g/ha
Summary of the method: as §1

bedstraw = experiment: Test B pre/postemergence bedstraw; format: in vivo, Galium aparine
Summary of the method: as §1

surinam grass = experiment: Test B pre/postemergence surinam grass; format: in vivo, Brachiaria decumbens
Summary of the method: as §1

crabgrass = experiment: Test B pre/postemergence crabgrass; format: in vivo, Digitaria sanguinalis
Summary of the method: as §1

cocklebur = experiment: Test B pre/postemergence cocklebur; format: in vivo, Xanthium strumarium
Summary of the method: as §1

wild oat = experiment: Test B pre/postemergence wild oat; format: in vivo, Avena fatua; conditions: for Plant response rating, Wild oats: Rate 250 g/ha
Summary of the method: as §1

smallflower flatsedge = experiment: Test B flood test smallflower flatsedge; format: in vivo, Cyperus difformis
Summary of the method: (§2)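 Flood test on plants grown to the 2-leaf stage; treated plants kept in greenhouse twelve to sixteen days, then visually rated against controls on a 0 (no effect) to 10 (complete control) scale.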

rape = experiment: Test B pre/postemergence rape; format: in vivo, Brassica napus
Summary of the method: as §1

sugar beet = experiment: Test B pre/postemergence sugar beet; format: in vivo, Beta vulgaris; conditions: for Plant response rating, Sugarbeets: Rate 250 g/ha
Summary of the method: as §1

rice = experiment: Test B flood test rice; format: in vivo, Oryza sativa
Summary of the method: as §2

bamyardgrass = experiment: Test B flood test barnyardgrass; format: in vivo, Echinochloa crus-galli
Summary of the method: as §2

[1] = Postemergence, Rate 125 g/ha, scale of 0 to 10 where 0 is no effect and 10 is complete control
[2] = Postemergence, Rate 250 g/ha, scale 0 to 10, 0 no effect, 10 complete control
[3] = Preemergence, Rate 62 g/ha, scale 0 to 10 (0 no effect, 10 complete control)
[4] = Preemergence, Rate 125 g/ha, scale 0 to 10 (0 no effect, 10 complete control)
[5] = Preemergence, Rate 250 g/ha, scale of 0 to 10 where 0 is no effect and 10 is complete control
[6] = Preemergence, Rate 500 g/ha, scale 0 to 10 (0 no effect, 10 complete control)
[7] = Rate 62 g/ha, Postemergence, scale of 0 to 10 where 0 is no effect and 10 is complete control
[8] = Rate 500 g/ha, Postemergence, scale 0 to 10, 0 no effect, 10 complete control
[9] = Preemergence, Rate 125 g/ha, 0 is no effect, 10 is complete control
[10] = Preemergence, scale of 0 to 10 where 0 is no effect and 10 is complete control
[11] = Postemergence, scale 0 to 10, 0 is no effect, 10 is complete control
[12] = Postemergence, Rate 62 g/ha, scale 0 to 10, 0 is no effect, 10 is complete control
[13] = Rate 125 g/ha, Postemergence, scale 0 to 10, 0 no effect, 10 complete control
[14] = Postemergence (flood test species), Rate 125 g/ha, scale of 0 to 10 where 0 is no effect and 10 is complete control
[15] = Rate 62 g/ha, Postemergence section, flood test species, scale of 0 to 10 where 0 is no effect and 10 is complete control
[16] = Rate 250 g/ha, Postemergence (flood test), scale 0 to 10, 0 is no effect, 10 is complete control
[17] = Rate 250 g/ha, headed Pre-emergence (flood test species), scale 0 to 10 (0 no effect, 10 complete control)
[18] = Rate 500 g/ha, headed Pre-emergence (flood test species), scale 0 to 10 (0 no effect, 10 complete control)
[19] = Rate 500 g/ha, listed under Postemergence (flood test species), scale 0 to 10, 0 no effect, 10 complete control
[20] = Rate 2000 g/ha, Pre-emergence (as headed), scale 0 to 10
[21] = Rate 1000 g/ha, Pre-emergence (as headed), scale 0 to 10

SMILES: CC(C)N(C(=O)n1oc(=O)n(C(C)C)c1=O)c1ccc(F)cc1F [Compound 109]
- Morningglory plant response rating (morningglory; [1]): 3
- Morningglory plant response rating (morningglory; [2]): 5
- Morningglory plant response rating (morningglory; [3]): 0
- Plant response rating, Morningglory (morningglory; [4]): 5
- Plant response rating, Morningglory (morningglory; [5]): 6
- Morningglory plant response rating (morningglory; [6]): 10
- Morningglory plant response rating (morningglory; [7]): 3
- Morningglory plant response rating (morningglory; [8]): 5
- Giant foxtail plant response rating (giant foxtail; [1]): 9
- Giant foxtail plant response rating (giant foxtail; [2]): 9
- Giant foxtail plant response rating (giant foxtail; [3]): 10
- Plant response rating, Giant foxtail (giant foxtail; [4]): 10
- Plant response rating, Giant foxtail (giant foxtail; [5]): 10
- Giant foxtail plant response rating (giant foxtail; [6]): 10
- Giant foxtail plant response rating (giant foxtail; [7]): 8
- Giant foxtail plant response rating (giant foxtail; [8]): 9
- Corn plant response rating (corn; [1]): 0
- Corn plant response rating (corn; [2]): 3
- Corn plant response rating (corn; [3]): 0
- Plant response rating, Corn (corn; [4]): 3
- Plant response rating, Corn (corn; [5]): 7
- Corn plant response rating (corn; [6]): 9
- Corn plant response rating (corn; [7]): 0
- Corn plant response rating (corn; [8]): 5
- Redroot pigweed plant response rating (pigweed; [1]): 5
- Redroot pigweed plant response rating (pigweed; [3]): 10
- Plant response rating, Redroot pigweed (pigweed; [4]): 10
- Plant response rating, Redroot pigweed (pigweed; [5]): 10
- Redroot pigweed plant response rating (pigweed; [6]): 10
- Redroot pigweed plant response rating (pigweed; [7]): 3
- Plant response rating, Redroot pigweed (pigweed; Rate 250 g/ha, Postemergence, scale 0 to 10, 0 is no effect, 10 is complete control): 8
- Redroot pigweed plant response rating (pigweed; [8]): 8
- Blackgrass plant response rating (blackgrass; [1]): 8
- Blackgrass plant response rating (blackgrass; [2]): 8
- Blackgrass plant response rating (blackgrass; [3]): 8
- Plant response rating, Blackgrass (blackgrass; [4]): 8
- Plant response rating, Blackgrass (blackgrass; [5]): 10
- Blackgrass plant response rating (blackgrass; [6]): 10
- Blackgrass plant response rating (blackgrass; [7]): 7
- Blackgrass plant response rating (blackgrass; [8]): 8
- Velvetleaf plant response rating (velvetleaf; [1]): 2
- Velvetleaf plant response rating (velvetleaf; [3]): 5
- Velvetleaf plant response rating (0 to 10 scale) (velvetleaf; [9]): 7
- Plant response rating, Velvetleaf (velvetleaf; [10]): 10
- Velvetleaf plant response rating (velvetleaf; [6]): 10
- Velvetleaf plant response rating (velvetleaf; [7]): 0
- Plant response rating, Velvetleaf (velvetleaf; [11]): 6
- Velvetleaf plant response rating (velvetleaf; [8]): 6
- Bedstraw plant response rating (bedstraw; [12]): 6
- Bedstraw plant response rating (bedstraw; [2]): 9
- Bedstraw plant response rating (bedstraw; [3]): 8
- Plant response rating, Bedstraw (bedstraw; [4]): 10
- Plant response rating, Bedstraw (bedstraw; [5]): 10
- Bedstraw plant response rating (bedstraw; [6]): 10
- Bedstraw plant response rating (bedstraw; [13]): 8
- B. signalgrass plant response rating (surinam grass; [12]): 7
- B. signalgrass plant response rating (surinam grass; [2]): 8
- B. signalgrass plant response rating (surinam grass; [3]): 9
- Plant response rating, B. signalgrass (surinam grass; [4]): 9
- Plant response rating, B. signalgrass (surinam grass; [5]): 10
- B. signalgrass plant response rating (surinam grass; [6]): 10
- B. signalgrass plant response rating (surinam grass; [13]): 7
- B. signalgrass plant response rating (surinam grass; Rate 500 g/ha, Postemergence, scale of 0 to 10 where 0 is no effect and 10 is complete control): 8
- Crabgrass plant response rating (crabgrass; [1]): 9
- Crabgrass plant response rating (crabgrass; [2]): 9
- Crabgrass plant response rating (crabgrass; [3]): 10
- Plant response rating, Crabgrass (crabgrass; [4]): 10
- Plant response rating, Crabgrass (crabgrass; [5]): 10
- Crabgrass plant response rating (crabgrass; [6]): 10
- Crabgrass plant response rating (crabgrass; [7]): 8
- Crabgrass plant response rating (crabgrass; [8]): 9
- Cocklebur plant response rating (cocklebur; [1]): 3
- Cocklebur plant response rating (cocklebur; [2]): 4
- Cocklebur plant response rating (cocklebur; [3]): 0
- Plant response rating, Cocklebur (cocklebur; [4]): 0
- Plant response rating, Cocklebur (cocklebur; [5]): 0
- Cocklebur plant response rating (cocklebur; [6]): 5
- Cocklebur plant response rating (cocklebur; [7]): 2
- Cocklebur plant response rating (cocklebur; [8]): 5
- Wild oats plant response rating (wild oat; [1]): 0
- Wild oats plant response rating (wild oat; [3]): 8
- Wild oats plant response rating (0 to 10 scale) (wild oat; [9]): 10
- Plant response rating, Wild oats (wild oat; [10]): 10
- Wild oats plant response rating (wild oat; [6]): 10
- Wild oats plant response rating (wild oat; [7]): 0
- Plant response rating, Wild oats (wild oat; [11]): 4
- Wild oats plant response rating (wild oat; [8]): 7
- S. Flatsedge plant response rating (smallflower flatsedge; [14]): 0
- S. Flatsedge plant response rating (smallflower flatsedge; Pre-emergence, Rate 1000 g/ha, scale 0 to 10 (0 no effect, 10 complete control)): 8
- S. Flatsedge plant response rating (smallflower flatsedge; [15]): 0
- Plant response rating, S. Flatsedge (smallflower flatsedge; [16]): 0
- S. Flatsedge plant response rating (smallflower flatsedge; [17]): 0
- Plant response rating, S. Flatsedge (smallflower flatsedge; [18]): 0
- S. Flatsedge plant response rating (smallflower flatsedge; [19]): 0
- S. Flatsedge plant response rating (smallflower flatsedge; [20]): 8
- Rape plant response rating (rape; [1]): 3
- Rape plant response rating (rape; [2]): 4
- Rape plant response rating (rape; [3]): 7
- Plant response rating, Rape (rape; [4]): 8
- Plant response rating, Rape (rape; [5]): 9
- Rape plant response rating (rape; [6]): 10
- Rape plant response rating (rape; [7]): 3
- Rape plant response rating (rape; [8]): 6
- Sugarbeets plant response rating (sugar beet; [1]): 4
- Sugarbeets plant response rating (sugar beet; [3]): 8
- Sugarbeets plant response rating (0 to 10 scale) (sugar beet; [9]): 10
- Plant response rating, Sugarbeets (sugar beet; [10]): 10
- Sugarbeets plant response rating (sugar beet; [6]): 10
- Sugarbeets plant response rating (sugar beet; [7]): 3
- Plant response rating, Sugarbeets (sugar beet; [11]): 6
- Sugarbeets plant response rating (sugar beet; [8]): 7
- Rice plant response rating (rice; [14]): 0
- Rice plant response rating (rice; [15]): 0
- Plant response rating, Rice (rice; [16]): 0
- Rice plant response rating (rice; [17]): 0
- Plant response rating, Rice (rice; [18]): 0
- Rice plant response rating (rice; [19]): 0
- Rice plant response rating (rice; [21]): 0
- Rice plant response rating (rice; [20]): 7
- Barnyardgrass plant response rating (bamyardgrass; [12]): 0
- Barnyardgrass plant response rating (bamyardgrass; Rate 125 g/ha, Postemergence section (flood test species), scale 0 to 10, 0 no effect, 10 complete control): 0
- Barnyardgrass plant response rating (bamyardgrass; [17]): 0
- Plant response rating, Barnyardgrass (bamyardgrass; [18]): 0
- Barnyardgrass plant response rating (bamyardgrass; [19]): 0
- Barnyardgrass plant response rating (bamyardgrass; [21]): 8
- Barnyardgrass plant response rating (bamyardgrass; Rate 2000 g/ha, Pre-emergence (as headed), scale 0 to 10, 0 no effect, 10 complete control): 9
- Barnyardgrass plant response rating (bamyardgrass; flood test, listed under Postemergence, Rate 250 g/ha, scale 0 to 10, 0 no effect, 10 complete control): 0
